Several values for one entry are separate records, joined by “and”; a condition that tells them apart may be missing. Identical values can stand only once. Like-named read-outs stand apart in the source and are kept apart here.
Key:
M. canis = assay: Susceptibility of dermatophytes, broth microdilution NCCLS M38-P; format: cell-based; conditions: for MIC: Microsporum canis
Description: (§1) Isolates were tested using the method described in the National Committee for Clinical Laboratory Standards (NCCLS) document M38-P for filamentous fungi, with dermatophyte specific modifications described by Fernández-Torres et al, Current topics in Medical Mycology, 14-19 Feb. 1999.
(§2) Five dermatophyte isolates were, namely; T. rubrum, T. mentagrophytes, T. tonsurans, M. canis and M. gypseum, all of which produce lipases and some, phospholipase. These isolates were tested by the broth microdilution method according to NCCLS document M38-P, for activity against selected antifungal agents. In addition, ten randomly selected isolates of T. tonsurans were also tested. All isolates were maintained on SDA at 28° C. Candida parapsilosis (ATCC 20019) was used as the reference control is organism.
(§3) The microdilution plates used were a single lot of RPMI 1640 basal medium (JRH bioScience Inc. Lenexa, Kans., USA) with L-glutamine and without sodium bicarbonate, buffered to pH 7.0, at 25° C., with 0.165 M (MOPS) morpholinepropanesulfonic acid (Sigma).
(§4) Powdered drugs were dissolved in 100% dimethyl sulfoxide (DMSO), at concentrations 100 times higher than the final test concentration. All compounds were prepared in 100% (DMSO). For ITRA and TRB, two-fold drug dilutions were prepared in 100% DMSO at 100 times the final concentration, followed by further dilution 1:50 in RPMI medium, to yield 2× the final strength required for the test.
(§5) Fungal cultures were subcultured onto Potato Dextrose Agar and grown at 28° C. for 7-10 days. Fungal suspensions were covered with 5 ml of distilled water, and then colonies were scraped off with cotton tipped swabs. The resulting mixture of conidia and hyphae elements was withdrawn, transferred to a sterile tube and then vortexed with glass beads. After the particles settled, the upper homogeneous suspension was collected and its density adjusted by a densitometer to a 0.5 McFarland standard at the wavelength of 530 nm (80-85% transmittance). These stock suspensions were then diluted 1:50 with RPMI medium to obtain final working inoculum concentration ranging from 0.3×10^4 to 9×10^4 CFU/ml. Inoculum quantification was performed by plating 100 μl of the 1:1000 dilution of the adjusted inoculum on SDA plates, incubated at 28° C., and after 7 days of incubation, the colonies were counted.
(§6) Testing was based on NCCLS M38-P document for testing filamentous moulds. Testing was carried out in sterile 96-well flat bottomed microtitre plate. Columns 1 and 3 to 12 were filled with 100 μl of RPMI medium, leaving column 2 unfilled. Columns 1, 2 and 3 were filled with 100 μl of 2× drug concentration. Serial dilutions were then made by transferring 100 μl from column 3 to each column up to column 11, and 100 μl from column 11 was discarded. Column 12 served as drug free growth control. Finally, 100 μl of inoculum suspension was added to all wells except column 1, which acted as sterility control (Columns 1 and 12 served as sterility and growth control respectively). Plates were incubated at 28° C. for 7 days, and read at 3 days and 7 days of incubation. All testing was performed in duplicate, on three separate occasions.
(§7) Growth in microtitre trays were read by visual inspection by using an illuminated-reversed mirror. Growth in each well was compared with the “growth control” drug free well. The MIC end point for all the drugs was chosen to be the first well with 100% growth inhibition (i.e. the lowest drug concentration inhibiting growth).

M. gypseum = assay: as above; format: cell-based; conditions: for MIC: Nannizzia gypsea
Description: as §1, §2, §3, §4, §5, §6, §7

T. rubrum = assay: as above; format: cell-based; conditions: for MIC: Trichophyton rubrum
Description: as §1, §2, §3, §4, §5, §6, §7

T. tonsurans = assay: as above; format: cell-based; conditions: for MIC: Trichophyton tonsurans
Description: as §1, §2, §3, §4, §5, §6, §7

[1] = biological target: T1, Porcine pancreatic phospholipase A2 (Sus scrofa, UniProt P00592); assay: Pancreatic phospholipase assay; format: biochemical; conditions: read-out: ppPLA2, percentage inhibition of activity
T1 construct: purchased Sigma, St. Louis MO, USA
Description: Pancreatic phospholipase assay. Porcine pancreatic phospholipase A2 suspension in 3.2M ammonium sulfate (2.9 mg protein/mL, Sigma St.Louis Mo., USA) was used. One part of well mixed enzyme suspension was added to 4 parts of buffer (10 mM Tris/HCl, pH 8.2; 10 mM CaCl2. Activity and inhibition by test compounds was then measured by the radiometric method described in Example 2 for fungal PLB activity. However, 25 μL enzyme solution was used, and the reaction time was 1 hour. These conditions result in ˜60% substrate conversion in the inhibitor-free control.

T1 sequence (P00592 23-146): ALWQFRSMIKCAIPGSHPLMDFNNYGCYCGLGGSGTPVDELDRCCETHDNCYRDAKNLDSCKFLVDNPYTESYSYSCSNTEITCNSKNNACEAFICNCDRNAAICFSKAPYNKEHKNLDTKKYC

Structure (SMILES)	MIC (M. canis; Table 9, read-out: MIC M. canis)	MIC (M. gypseum; Table 9, read-out: MIC M. gypseum)	MIC (T. rubrum; Table 9, read-out: MIC T. rubrum)	MIC (T. tonsurans; Table 9, read-out: MIC T. tonsurans)	inhibition at 0.25 µM [1]	inhibition at 2.5 µM [1]	inhibition at 25 µM [1]	inhibition at 250 µM [1]	MIC Range, M. canis (M. canis; 100% growth inhibition, 28° C.)	MIC (M. canis; 100% growth inhibition, 28° C., read-out: MIC GM, M. canis)	MIC (M. canis; 100% growth inhibition, 28° C., read-out: MIC Mean, M. canis)	MIC Range, M. gypseum (M. gypseum; 100% growth inhibition, 28° C.)	MIC (M. gypseum; 100% growth inhibition, 28° C., read-out: MIC GM, M. gypseum)	MIC (M. gypseum; 100% growth inhibition, 28° C., read-out: MIC Mean, M. gypseum)	MIC Range, T. rubrum (T. rubrum; 100% growth inhibition, 28° C.)	MIC (T. rubrum; 100% growth inhibition, 28° C., read-out: MIC GM, T. rubrum)	MIC (T. rubrum; 100% growth inhibition, 28° C., read-out: MIC Mean, T. rubrum)	MIC Range, T. tonsurans (T. tonsurans; 100% growth inhibition, 28° C.)	MIC (T. tonsurans; 100% growth inhibition, 28° C., read-out: MIC GM, T. tonsurans)	MIC (T. tonsurans; 100% growth inhibition, 28° C., read-out: MIC Mean, T. tonsurans)
CCCC[N+](CCCC)(CCCC)CCCCCCCCCCCC[N+](CCCC)(CCCC)CCCC [1,12-Bis-(tributylammonium)dodecane dichloride]	5.7 µg/mL and 9.4 µM	3.8 µg/mL and 6.3 µM	5.7 µg/mL and 9.4 µM	3.8 µg/mL and 6.2 µM																
CCCC[P+](CCCC)(CCCC)CCCCCCCCCCCC[P+](CCCC)(CCCC)CCCC [Compound 1, 1,12-bis(tributylphosphonium)dodecane dibromide]					0%	5%	62%	97%												
CCCC[N+](CCCC)(CCCC)CCCCCCCCCCCC[N+](CCCC)(CCCC)CCCC [Compound 3, 1,12-bis(tributylammonium)do-decane dibromide]					0%	0%	36%	86%	3.8 to 7.6 µg/mL	6.03 µg/mL	6.33 µg/mL	1.9 to 7.6 µg/mL	3.8 µg/mL	4.75 µg/mL	3.8 to 7.6 µg/mL	5.37 µg/mL	5.7 µg/mL	1.9 to 7.6 µg/mL	3.38 µg/mL	3.8 µg/mL

— patent publication US7947854B2, “Bis-cationic compounds and use thereof” (The University of Sydney, priority 2003, dated 2011)
